Measurements reported in US20100227931A1, “ANTIFUNGAL COMPOSITION” (Kao Corporation, priority 2007, published 2010).

Assay: Measurement of calcium-chelating constant (Ca2+ ion electrode, pH 10 buffer)
Format: physicochemical
Details: 0.1 mol/L NH4Cl-NH4OH buffer pH 10; 1:1 chelate complex assumed
Experimental: As used herein, the “calcium-chelating constant” refers a value determined by the following method. A solution of 0.1 mol/L NH4Cl-NH4OH (pH 10) is prepared as a buffer. The buffer is used for preparing all sample solutions. To measure a concentration of Ca^2+, an ion meter, Orion […], and a Ca^2+ ion electrode are used. First, a relationship between calcium chloride concentration and potential of the electrode is determined to generate a calibration curve. […] A concentration of remaining Ca^2+ is measured using the Ca^2+ ion electrode. […] [formula] [M]total: initial Ca^2+ concentration [L]total: initial chelating agent concentration [M]: remaining Ca^2+ concentration

calcium-chelating constant | SMILES
12 | O=C(O)CN(CCN(CC(=O)O)CC(=O)O)CC(=O)O [EDTA, ethylenediaminetetraacetic acid]
3 | O=C(O)CC(O)(CC(=O)O)C(=O)O [citric acid]
